Reference: the NIST ThermoML archive (doi:10.1021/je800110r)
Numbers after ± are expanded uncertainties.

Conditions: Liquid, Vibrating tube method

CCCCCCCCCC [decane]
mass density [kg/m3]
Conditions	283.15 K	293.14 K
635 kPa	–	730.3 ± 2
660 kPa	–	730.5 ± 2
720 kPa	–	730.4 ± 2
803 kPa	–	730.5 ± 2
26776 kPa	755.1 ± 2.1	–
26808 kPa	755.2 ± 2.1	–
26844 kPa	755.1 ± 2.1	–
26869 kPa	755.2 ± 2.1	–
26895 kPa	755.3 ± 2.1	–
26931 kPa	755.3 ± 2.1	–
26952 kPa	755.2 ± 2.1	–
26974 kPa	755.3 ± 2.1	–
27007 kPa	755.3 ± 2.1	–
27036 kPa	755.3 ± 2.1	–
27058 kPa	755.3 ± 2.1	–
27090 kPa	755.5 ± 2.1	–
27112 kPa	755.3 ± 2.1	–
27145 kPa	755.4 ± 2.1	–
27171 kPa	755.4 ± 2.1	–
27193 kPa	755.5 ± 2.1	–
27219 kPa	755.3 ± 2.1	–
27242 kPa	755.5 ± 2.1	–
27268 kPa	755.6 ± 2.1	–
27295 kPa	755.5 ± 2.1	–
27321 kPa	755.4 ± 2.1	–
27347 kPa	755.6 ± 2.1	–
27373 kPa	755.5 ± 2.1	–
27611 kPa	755.7 ± 2.1	–
27638 kPa	755.7 ± 2.1	–
27665 kPa	755.8 ± 2.1	–
27700 kPa	755.7 ± 2.1	–
27726 kPa	755.8 ± 2.1	–
27749 kPa	755.7 ± 2.1	–
27784 kPa	755.8 ± 2.1	–
27818 kPa	755.8 ± 2.1	–
27842 kPa	755.9 ± 2.1	–
27876 kPa	755.9 ± 2.1	–
27908 kPa	755.9 ± 2.1	–
27935 kPa	755.9 ± 2.1	–
27963 kPa	755.9 ± 2.1	–
27990 kPa	755.9 ± 2.1	–
28021 kPa	755.9 ± 2.1	–
28049 kPa	755.9 ± 2.1	–
28076 kPa	756 ± 2.1	–
28113 kPa	756 ± 2.1	–
28134 kPa	756 ± 2.1	–
28171 kPa	756 ± 2.1	–
28206 kPa	756 ± 2.1	–
28227 kPa	756 ± 2.1	–
28251 kPa	756.1 ± 2.1	–
28288 kPa	756.1 ± 2.1	–
28322 kPa	756.2 ± 2.1	–
28344 kPa	756.1 ± 2.1	–
28377 kPa	756 ± 2.1	–
28409 kPa	756.2 ± 2.1	–
28431 kPa	756.3 ± 2.1	–
28463 kPa	756.1 ± 2.1	–
28486 kPa	756.2 ± 2.1	–
28515 kPa	756.3 ± 2.1	–
28541 kPa	756.2 ± 2.1	–
28571 kPa	756.3 ± 2.1	–
28597 kPa	756.3 ± 2.1	–
28616 kPa	756.2 ± 2.1	–
28645 kPa	756.3 ± 2.1	–
28678 kPa	756.4 ± 2.1	–
28701 kPa	756.3 ± 2.1	–
28728 kPa	756.4 ± 2.1	–
28766 kPa	756.4 ± 2.1	–
28792 kPa	756.5 ± 2.1	–
28822 kPa	756.4 ± 2.1	–
28845 kPa	756.5 ± 2.1	–
28872 kPa	756.5 ± 2.1	–
28899 kPa	756.5 ± 2.1	–
28925 kPa	756.5 ± 2.1	–
28952 kPa	756.4 ± 2.1	–
28987 kPa	756.5 ± 2.1	–
29014 kPa	756.5 ± 2.1	–
29040 kPa	756.5 ± 2.1	–
29067 kPa	756.5 ± 2.1	–
29114 kPa	756.7 ± 2.1	–
29141 kPa	756.6 ± 2.1	–
29203 kPa	756.7 ± 2.1	–
29251 kPa	756.7 ± 2.1	–
29278 kPa	756.6 ± 2.1	–
29309 kPa	756.6 ± 2.1	–
29341 kPa	756.7 ± 2.1	–
29368 kPa	756.7 ± 2.1	–
29392 kPa	756.6 ± 2.1	–
29424 kPa	756.7 ± 2.1	–
29460 kPa	756.7 ± 2.1	–
29484 kPa	756.8 ± 2.1	–
29508 kPa	756.7 ± 2.1	–
29555 kPa	756.8 ± 2.1	–
29591 kPa	756.8 ± 2.1	–
29652 kPa	756.9 ± 2.1	–
29688 kPa	757 ± 2.1	–
30170 kPa	757.2 ± 2.1	–
30200 kPa	757.3 ± 2.1	–
30225 kPa	757.3 ± 2.1	–
30263 kPa	757.3 ± 2.1	–
30301 kPa	757.1 ± 2.1	–
30327 kPa	757.2 ± 2.1	–
30365 kPa	757.4 ± 2.1	–
30399 kPa	757.3 ± 2.1	–
30425 kPa	757.3 ± 2.1	–
30461 kPa	757.4 ± 2.1	–
30487 kPa	757.4 ± 2.1	–
30512 kPa	757.4 ± 2.1	–
30539 kPa	757.4 ± 2.1	–
30561 kPa	757.4 ± 2.1	–
30603 kPa	757.4 ± 2.1	–
30638 kPa	757.4 ± 2.1	–
30664 kPa	757.4 ± 2.1	–
30704 kPa	757.5 ± 2.1	–
30740 kPa	757.4 ± 2.1	–
30771 kPa	757.5 ± 2.1	–
30836 kPa	757.5 ± 2.1	–
30867 kPa	757.5 ± 2.1	–
30893 kPa	757.6 ± 2.1	–
30975 kPa	757.6 ± 2.1	–
31003 kPa	757.6 ± 2.1	–
31031 kPa	757.7 ± 2.1	–
31062 kPa	757.8 ± 2.1	–
31099 kPa	757.6 ± 2.1	–
31136 kPa	757.6 ± 2.1	–
31162 kPa	757.7 ± 2.1	–
31187 kPa	757.9 ± 2.1	–
31218 kPa	757.7 ± 2.1	–
31253 kPa	757.8 ± 2.1	–
31284 kPa	757.9 ± 2.1	–
31310 kPa	757.9 ± 2.1	–
31337 kPa	757.9 ± 2.1	–
31363 kPa	757.8 ± 2.1	–
31377 kPa	757.9 ± 2.1	–
31402 kPa	757.9 ± 2.1	–
31424 kPa	758 ± 2.1	–
31441 kPa	758 ± 2.1	–
31463 kPa	758 ± 2.1	–
31492 kPa	758 ± 2.1	–
31509 kPa	758 ± 2.1	–
31566 kPa	757.9 ± 2.1	–
31598 kPa	758 ± 2.1	–
31615 kPa	758 ± 2.1	–
31631 kPa	758 ± 2.1	–
31657 kPa	758.2 ± 2.1	–
31680 kPa	758 ± 2.1	–
31697 kPa	758.1 ± 2.1	–
31724 kPa	758.2 ± 2.1	–
31749 kPa	758.2 ± 2.1	–
31769 kPa	758.1 ± 2.1	–
31794 kPa	758.1 ± 2.1	–
31815 kPa	758.3 ± 2.1	–
31835 kPa	758.2 ± 2.1	–
31855 kPa	758.3 ± 2.1	–
31878 kPa	758.3 ± 2.1	–
32055 kPa	758.2 ± 2.1	–
32091 kPa	758.2 ± 2.1	–
32141 kPa	758.3 ± 2.1	–
32209 kPa	758.4 ± 2.1	–
32230 kPa	758.4 ± 2.1	–
32248 kPa	758.4 ± 2.1	–
32268 kPa	758.5 ± 2.1	–
32289 kPa	758.5 ± 2.1	–
32312 kPa	758.4 ± 2.1	–
32330 kPa	758.4 ± 2.1	–
32357 kPa	758.5 ± 2.1	–
32378 kPa	758.5 ± 2.1	–
32405 kPa	758.4 ± 2.1	–
32427 kPa	758.6 ± 2.1	–
32445 kPa	758.5 ± 2.1	–
32465 kPa	758.5 ± 2.1	–
32490 kPa	758.6 ± 2.1	–
32511 kPa	758.4 ± 2.1	–
32535 kPa	758.6 ± 2.1	–
32559 kPa	758.5 ± 2.1	–
32597 kPa	758.6 ± 2.1	–
32618 kPa	758.6 ± 2.1	–
32636 kPa	758.6 ± 2.1	–
32655 kPa	758.6 ± 2.1	–
32682 kPa	758.7 ± 2.1	–
32708 kPa	758.8 ± 2.1	–
32727 kPa	758.6 ± 2.1	–
32746 kPa	758.7 ± 2.1	–
32767 kPa	758.6 ± 2.1	–
32793 kPa	758.6 ± 2.1	–
32811 kPa	758.7 ± 2.1	–
32827 kPa	758.8 ± 2.1	–
32850 kPa	758.7 ± 2.1	–
32869 kPa	758.7 ± 2.1	–
32894 kPa	758.7 ± 2.1	–
32922 kPa	758.8 ± 2.1	–
32944 kPa	758.8 ± 2.1	–
32966 kPa	758.7 ± 2.1	–
32989 kPa	758.9 ± 2.1	–
33018 kPa	758.8 ± 2.1	–
33037 kPa	758.9 ± 2.1	–
33062 kPa	758.7 ± 2.1	–
33085 kPa	758.9 ± 2.1	–
33107 kPa	758.9 ± 2.1	–
33133 kPa	759 ± 2.1	–
33155 kPa	758.9 ± 2.1	–
33178 kPa	759 ± 2.1	–
33200 kPa	759.1 ± 2.1	–
33220 kPa	759 ± 2.1	–
33249 kPa	759 ± 2.1	–
33275 kPa	759 ± 2.1	–
33295 kPa	759 ± 2.1	–
33544 kPa	759.2 ± 2.1	–
33573 kPa	759.1 ± 2.1	–
33592 kPa	759.1 ± 2.1	–
33621 kPa	759.2 ± 2.1	–
33651 kPa	759.1 ± 2.1	–
33667 kPa	759.3 ± 2.1	–
33690 kPa	759.3 ± 2.1	–
33707 kPa	759.1 ± 2.1	–
33737 kPa	759.2 ± 2.1	–
33761 kPa	759.3 ± 2.1	–
33781 kPa	759.2 ± 2.1	–
33805 kPa	759.2 ± 2.1	–
33822 kPa	759.3 ± 2.1	–
33852 kPa	759.2 ± 2.1	–
33873 kPa	759.3 ± 2.1	–
33897 kPa	759.2 ± 2.1	–
33922 kPa	759.3 ± 2.1	–
33943 kPa	759.4 ± 2.1	–
33964 kPa	759.4 ± 2.1	–
33982 kPa	759.3 ± 2.1	–
34002 kPa	759.4 ± 2.1	–
34022 kPa	759.4 ± 2.1	–
34045 kPa	759.4 ± 2.1	–
34063 kPa	759.5 ± 2.1	–
34081 kPa	759.3 ± 2.1	–
34104 kPa	759.4 ± 2.1	–
34127 kPa	759.6 ± 2.1	–
34148 kPa	759.4 ± 2.1	–
34169 kPa	759.4 ± 2.1	–
34195 kPa	759.5 ± 2.1	–
34214 kPa	759.5 ± 2.1	–
34237 kPa	759.6 ± 2.1	–
34264 kPa	759.5 ± 2.1	–
34311 kPa	759.6 ± 2.1	–
34330 kPa	–	753.1 ± 2.1
34339 kPa	759.5 ± 2.1	–
34351 kPa	–	753.1 ± 2.1
34359 kPa	759.6 ± 2.1	–
34380 kPa	–	753.2 ± 2.1
34400 kPa	–	753.1 ± 2.1
34412 kPa	–	753.3 ± 2.1
34420 kPa	–	753.2 ± 2.1
34428 kPa	–	753.1 ± 2.1
34437 kPa	–	753.2 ± 2.1
34447 kPa	759.6 ± 2.1	–
34451 kPa	–	753.2 ± 2.1
34459 kPa	–	753.2 ± 2.1
34471 kPa	–	753.2 ± 2.1
34478 kPa	759.7 ± 2.1	–
34481 kPa	–	753.1 ± 2.1
34490 kPa	759.6 ± 2.1	–
34491 kPa	–	753.1 ± 2.1
34504 kPa	759.7 ± 2.1	753.2 ± 2.1
34514 kPa	759.7 ± 2.1	–
34517 kPa	–	753.2 ± 2.1
34527 kPa	–	753.2 ± 2.1
34530 kPa	759.6 ± 2.1	–
34537 kPa	–	753.3 ± 2.1
34543 kPa	–	753.2 ± 2.1
34544 kPa	759.7 ± 2.1	–
34545 kPa	–	753.3 ± 2.1
34551 kPa	759.7 ± 2.1	–
34558 kPa	759.6 ± 2.1	–
34561 kPa	759.7 ± 2.1	–
34564 kPa	759.8 ± 2.1	–
34567 kPa	759.6 ± 2.1	–
